Structures can show the parent of a compound that is named as a salt. Where two headings read alike, the source gives them in different places.
How the values were obtained:
[1] = tested on: human T-cells; assay: Suppression of Human T-Cell Proliferation Assay (PHA-stimulated, [3H]-thymidine incorporation); assay type: cell-based; conditions: read-out: IC50
Procedure, shortened: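 Read-out is scintillation counting of [3H]-thymidine pulsed for the last 6 h of a 72 h, 37° C culture. Human T-cells, isolated from LeukoPaks by Lymphoprep and sheep-erythrocyte rosetting, were PHA-M activated (40 μg/ml stock) with compound dilutions added in duplicate wells.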

[2] = biological target: FKBP (Homo sapiens, UniProt P62942); assay: PPIase Inhibition Assay; assay type: biochemical
Procedure, shortened: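 Rates from p-nitroaniline release at 390 nm over 90 sec, fitted first-order, were converted to % activity remaining relative to uncatalyzed and uninhibited rates, with IC50 from linear regression of V-/V+ against inhibitor level. FKBP acted on Suc-Ala-Phe-Pro-Phe-pNA with excess chymotrypsin, HEPES pH 7.8, cold buffer.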

[3] = tested on: NF-AT; assay: NF-AT Inhibition Assay Directed β-Galactosidase Expression in FGL-5 cells; assay type: cell-based
Procedure: 3) NF-AT Assay Stimulation of T-cells leads to the appearance of several transcription factors, including one designated "NF-AT". These factors are involved in regulation of gene expression required for immunologic activation. Some of these transcription factors appear to have functions in a wide variety of cell types. By contrast, NF-AT is found primarily in T-cells and its role is restricted to early gene activation. […] Inhibition of NF-AT activity is measured using FGL-5 cells. FGL-5 is a cloned line of stably transfected Jurkat T-cells that contain two construct in which three tandem copies of the NF-AT DNA binding site direct transcription of both murine CD8 and the lacZ gene, encoding β-galactosidase ([…] et al., 1990, Genes & Development 4:1823). When these cells are stimulated with phorbol esters which activate protein kinase C and calcium ionophore to raise the intracellular calcium concentration, transcriptionally active NF-AT is produced. In T-cells, this normally leads to the expression of IL-2, T-cell growth factor. However, in FGL-5 cells NF-AT activation leads to the production of β-galactosidase which can be detected using an appropriate substrate. […] NF-AT Inhibition Assay Directed β-Galactosidase Expression This assay was performed essentially as described (Bierer et al., 1990, Proc. Natl. Acad. Sci. 87:9231). […] The assays were done with exponentially growing cells whose density was not greater than 0.5 million cells/ml. The cells were resuspended to 3 million cells/ml in medium and 0.1 ml was added to wells of a 96-well plate. The compounds of the present invention were dissolved in either ethanol or dimethylsulfoxide at 10 mM and […] of various dilutions in medium were added to cells in duplicate wells. Treatment controls consisted of duplicate wells containing 0.5 ml/well of either medium, ethanol or dimethylsulfoxide. The ethanol and dimethyl sulfoxide were at the same concentration as was used for the compounds. […] Phorbol dibutyrate (Sigma) and Ionomycin (Calbiochem) were dissolved at 50 μg/ml and 2 mM, respectively and stored at -70° C. […] For unstimulated cell controls, 0.5 ml/well of medium was added to duplicate wells. The plates were incubated overnight (16-18 hours) at 37° C. in a humidified atmosphere of 5% CO2 and air. β-galactosidase activity was measured as the fluorescence generated by the cleavage of 4-methyl umbelliferyl-β-D-galactoside (Sigma) at the β-galactoside bond. After overnight incubation, the cells were centrifuged at 500×g for 3 minutes in the 96-well plates and washed 3 times with PBS. […] The percent inhibition by each concentration of the compounds was calculated as: […]

[4] = concentration inhibiting [3H]-thymidine incorporation of PHA-stimulated T-cells by 50%, 72 hours, TABLE 2
[5] = concentration of inhibitor required for 50% inhibition of enzyme activity, FKBP, substrate Succinyl-Ala-Phe-Pro-Phe-para-nitroanilide, TABLE I
[6] = 50% inhibition of NF-AT directed β-galactosidase activity in FGL-5 cells stimulated with phorbol dibutyrate and ionomycin, TABLE 3

Chain of FKBP (P62942 whole entry): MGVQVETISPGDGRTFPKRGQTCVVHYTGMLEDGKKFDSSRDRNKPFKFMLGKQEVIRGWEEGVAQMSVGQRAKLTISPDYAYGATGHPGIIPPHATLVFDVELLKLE

CC[C@H](C)[C@H](NC(=O)[C@@H]1CCCN1CC(=O)c1ccco1)C(=O)NCc1ccccc1 [Example 37, L-Isoleucine, N-[1-(2-Furan-2-yl-2-Oxoethyl)-L-Prolyl] Benzylamide]
IC50 [1]: > 100 µM
IC50 [2]: > 50 µM
IC50 [3]: > 100 µM

CC[C@H](C)[C@H](NC(=O)[C@@H]1CCCN1CC(=O)c1cccc(OC)c1OC)C(=O)NCc1ccccc1 [Example 111, L-Isoleucine, N-[1-(2-(2,3-Dimethoxyphenyl)-2-Oxoethyl)-L-Prolyl] Benzylamide]
IC50 [1, 4]: 7 µM
IC50 [2, 5]: < 5 µM
IC50 [3, 6]: > 15 µM

CC[C@H](C)[C@H](NC(=O)[C@@H]1CCCN1CC(=O)C1CCC2CCCC21)C(=O)NCc1ccccc1 (relative stereo) [Example 40]
IC50 [1]: 17 µM
IC50 [2]: < 5 µM
IC50 [3]: 19 µM

COc1cc(C(=O)CN2CCCC[C@H]2C(=O)N[C@@H](CCc2ccccc2)CC(C)C)cc(OC)c1OC [Example 152, L-Homoproline, 1-[2-(3,4,5-Trimethoxyphenyl)-2-Oxoethyl] (1-(S)-[2'-(S)-methylpropyl]-3-phenylpropyl)-amide]
IC50 [1, 4]: 8 µM
IC50 [2, 5]: > 5 µM
IC50 [3, 6]: > 15 µM

CC[C@H](C)[C@H](NC(=O)[C@@H]1CCCN1CC(=O)C12CC3CC(CC(C3)C1)C2)C(=O)N[C@@H](C)c1ccccc1 [Example 65, L-Isoleucine, N-[1-(2-Adamantan-1-yl-2-Oxoethyl)-L-Prolyl] alpha-(S)-methylbenzylamide]
IC50 [1, 4]: 8 µM
IC50 [2, 5]: 0.1 µM
IC50 [3, 6]: 17 µM

COc1cc(C(=O)CN2CCC[C@H]2C(=O)NCCc2ccc(S(N)(=O)=O)cc2)cc(OC)c1OC [Example 130, L-Proline, 1-[2-(3,4,5-Trimethoxyphenyl)-2-Oxoethyl] 2-(4-Sulfamoylphenyl)ethylamide]
IC50 [1, 4]: 4 µM
IC50 [2, 5]: > 5 µM
IC50 [3, 6]: > 15 µM

C=CCOC(=O)Nc1ccc(CCCOC(=O)[C@@H]2CCCCN2CC(=O)C23CC4CC(CC(C4)C2)C3)cc1 [Example 161, L-Homoproline, 1-[2-Adamant-1-yl-2-Oxoethyl] 3-(4-(N-Carboallyloxy)aminophenyl)propyl Ester Hydrochloride]
IC50 [1, 4]: 9 µM
IC50 [2, 5]: > 5 µM
IC50 [3, 6]: > 15 µM

O=C(NCc1ccccc1)[C@H](CC1CCCCC1)NC(=O)[C@@H]1CCCN1CC(=O)C12CC3CC(CC(C3)C1)C2 [Example 64, L-Cyclohexylalanine, N-[1-(2-Adamantan-1-yl-2-Oxoethyl)-L-Prolyl] Benzylamide]
IC50 [1, 4]: 7 µM
IC50 [2, 5]: < 5 µM
IC50 [3, 6]: 16 µM

COc1cc(C(=O)CN2CCCC[C@H]2C(=O)NCC23CC4CC(CC(C4)C2)C3)cc(OC)c1OC [Example 147, L-Homoproline, 1-[2-(3,4,5-Trimethoxyphenyl)-2-Oxoethyl] Adamant-1-ylmethylamide Hydrochloride]
IC50 [1, 4]: 8 µM
IC50 [2, 5]: > 5 µM
IC50 [3, 6]: > 15 µM

CC[C@H](C)[C@H](NC(=O)[C@@H]1CCCCN1CC(=O)C12CC3CC(CC(C3)C1)C2)C(=O)NCc1ccccc1 [Example 36, L-Isoleucine, N-[1-(2-Adamantan-1-yl-2-Oxoethyl)-L-Homoproline] Benzylamide]
IC50 [1, 4]: 20 µM
IC50 [2, 5]: 2.2 µM
IC50 [3, 6]: 13 µM

CC[C@H](C)[C@H](NC(=O)[C@@H]1CCCN1CC(=O)C1CCc2ccccc2O1)C(=O)NCc1ccccc1 (stereo partly drawn) [Example 99, L-Isoleucine, N-[1-(2-(Chroman-2-yl)-2-Oxoethyl)-L-Prolyl] Benzylamide Hydrochloride Salt]
IC50 [1, 4]: > 15 µM
IC50 [2, 5]: 5 µM
IC50 [3, 6]: > 15 µM

CC[C@H](C)[C@H](NC(=O)[C@@H]1CCCN1CC(=O)c1ccc2c(c1)OCO2)C(=O)NCc1ccccc1 [Example 107, L-Isoleucine, N-[1-(2-(Benzo[1,3]dioxol-5-yl)-2-Oxoethyl)-L-Prolyl] Benzylamide]
IC50 [1, 4]: 1 µM
IC50 [2, 5]: < 5 µM
IC50 [3, 6]: 0.6 µM

COc1ccccc1CNC(=O)[C@@H]1CCCN1CC(=O)c1cc(OC)c(OC)c(OC)c1 [Example 134, L-Proline, 1-[2-(3,4,5-Trimethoxyphenyl)-2-Oxoethyl] 2-Methoxybenzamide Hydrochloride]
IC50 [1, 4]: 19 µM
IC50 [2, 5]: > 5 µM
IC50 [3, 6]: > 33 µM

CC[C@H](C)[C@H](NC(=O)[C@@H]1CCCN1CC(=O)C1(c2ccc(C)cc2)CCCCC1)C(=O)NCc1ccccc1 [Example 113, L-Isoleucine, N-[1-(2-(1-(4-Methylphenyl)cyclohexyl)-2-Oxoethyl)-L-Prolyl] Benzylamide]
IC50 [1, 4]: 8 µM
IC50 [2, 5]: < 5 µM
IC50 [3, 6]: > 15 µM

COc1cc(C(=O)CN2CCC[C@H]2C(=O)NC(c2ccccc2)c2ccccc2)cc(OC)c1OC [Example 142, L-Proline, 1-[2-(3,4,5-Trimethoxyphenyl)-2-Oxoethyl] Diphenylmethylamide Hydrochloride]
IC50 [1, 4]: 12 µM
IC50 [2, 5]: > 5 µM
IC50 [3, 6]: > 33 µM

CC[C@H](C)[C@H](NC(=O)[C@@H]1CCCN1CC(=O)CC12CC3CC(CC(C)(C3)C1)C2)C(=O)NCc1ccccc1 [Example 46, L-Isoleucine, N-[1-(2-Oxo-3-(3-Methyl-Adamantan-1-yl)-Propyl)-L-Prolyl] Benzylamide]
IC50 [1, 4]: 13 µM
IC50 [2, 5]: < 5 µM
IC50 [3, 6]: 15 µM

CC[C@H](C)[C@H](NC(=O)[C@@H]1CCCN1CC(=O)c1ccccc1OC(=O)c1ccccc1)C(=O)NCc1ccccc1 [Example 103, L-Isoleucine, N-[1-(2-(2-Benzoyloxyphenyl)-2-Oxoethyl)-L-Prolyl] Benzylamide]
IC50 [1, 4]: > 15 µM
IC50 [2, 5]: < 5 µM
IC50 [3, 6]: > 15 µM

CC[C@H](C)[C@H](NC(=O)[C@@H]1CCCN1CC(=O)C12CC3CC(CC1C3)C2)C(=O)NCc1ccccc1 [Example 45, L-Isoleucine, N-[1-(2-Oxo-2-Tricyclo[3.3.1.0 ^3,7]Non-3-yl-Ethyl)-L-Prolyl] Benzylamide]
IC50 [1, 4]: 20 µM
IC50 [2, 5]: < 5 µM
IC50 [3, 6]: > 33 µM

CC[C@H](C)[C@H](NC(=O)[C@@H]1CCCN1CC(=O)OCC=C(C)c1ccccc1)C(=O)NCc1ccccc1 [Example 85, L-Isoleucine, N-[1-(2-(3-Phenyl-3-Methyl-2-Propen-1-Oxy)-2-Oxoethyl)-L-Prolyl] Benzylamide]
IC50 [1, 4]: 22 µM
IC50 [2, 5]: < 5 µM
IC50 [3, 6]: 13 µM

COc1cc(C(=O)CN2CCC[C@H]2C(=O)NCCCCc2ccccc2)cc(OC)c1OC [Example 123, L-Proline, 1-[2-(3,4,5-Trimethoxyphenyl)-2-Oxoethyl] 4-Phenylbutylamide Hydrochloride]
IC50 [1, 4]: 10 µM
IC50 [2, 5]: > 5 µM
IC50 [3, 6]: > 15 µM

CC[C@H](C)[C@H](NC(=O)[C@@H]1CCCN1CC(=O)OC(CN1CCOCC1)c1ccccc1)C(=O)NCc1ccccc1 (stereo partly drawn) [Example 88, L-Isoleucine, N-[1-(2-(1-Phenyl-2-(4-Morpholino)Ethoxy)-2-Oxoethyl)-L-Prolyl] Benzylamide]
IC50 [1, 4]: 16 µM
IC50 [2, 5]: < 5 µM
IC50 [3, 6]: 13 µM

COc1cc(C(=O)CN2CCC[C@H]2C(=O)NC2CCCCC2)cc(OC)c1OC [Example 145, L-Proline, 1-[2-(3,4,5-Trimethoxyphenyl)-2-Oxoethyl] Cyclohexyl amide Hydrochloride]
IC50 [1, 4]: 4 µM
IC50 [2, 5]: > 5 µM
IC50 [3, 6]: > 33 µM

CCCC[C@H](NC(=O)[C@@H]1CCCN1CC(=O)C12CC3CC(CC(C3)C1)C2)C(=O)NCc1ccccc1 [Example 60, L-Norleucine, N-[1-(2-Adamantan-1-yl-2-Oxoethyl)-L-Prolyl] Benzylamide]
IC50 [1, 4]: 16 µM
IC50 [2, 5]: 0.4 µM
IC50 [3, 6]: 18 µM

CC[C@H](C)[C@H](NC(=O)[C@@H]1CCCN1CC(=O)c1c(OC)cccc1OC)C(=O)NCc1ccccc1 [Example 112, L-Isoleucine, N-[1-(2-(2,6-Dimethoxyphenyl)-2-Oxoethyl)-L-Prolyl] Benzylamide]
IC50 [1, 4]: 7 µM
IC50 [2, 5]: < 5 µM
IC50 [3, 6]: > 15 µM
